In patent publication US4328231A, “Method of treating psoriasis” (Richter Gedeon Vegyeszeti Gyar Rt., priority 1979, dated 1982):
Counter-ions that a name gives are not always drawn.

Experiments:
phosphodiesterase [1] = assay: Inhibition of phosphodiesterase isolated from rat brain tissue (radioisotopic technique, tritium-labelled c-AMP); assay type: biochemical; conditions: 20 minutes incubation, % of control
phosphodiesterase [2] = assay: as above; assay type: biochemical; conditions: 20 minutes incubation, % of control; remark: listed apart in the source
Description: Our model experiments were carried out by means of phosphodiesterase isolated from animal tissues. More particularly, the enzyme was isolated from the brain tissue of rats following the method of J. Schroder and H. V. Richenberg [Biochem. Biophys. Acta 302, 50 (1973)], whereupon the isolated phosphodiesterase was purified by the method of J. G. Hardman and E. W. Sutherland [J. Biol. Chem. 240, 3704 (1965)]. Finally, the activity of the purified enzyme was measured by the radioisotopic technique of G. Poch, in the presence of an excess amount of tritium-labelled c-AMP, in an incubator, initially without the inhibiting system and thereafter in the presence of a compound of the formula (I) as an inhibitor. The enzyme activity was determined after an incubation time of 20 minutes [N. S. Arch. Pharmacol. 268, 272 (1971)]. From the salts of the test compounds of the formula (I) aqueous 10^-3 molar stock solutions were prepared, their pH was adjusted to 4 to 5. To the incubated enzyme preparations suitable amounts of the stock solution were added in order to obtain a series of test solutions containing a compound of the formula (I) in a concentration of 10^-5, 5× 10^-5, 10^-4, 5×10^-4 and 10^-3 moles/lit. […] The degree of inhibition (decrease of enzyme activity) was expressed in % of the control (enzyme preparation containing no inhibitor).

phosphodiesterase [3] = conditions: Voorhees et al.; cited from earlier work
psoriasis = conditions: Voorhees et al.; cited from earlier work
adenyl cyclase = conditions: Voorhees et al.; cited from earlier work

| Compound | Inhibition (%) obtained by 5 × 10^-6 moles/lit. concentrations of the test compounds (phosphodiesterase [1]) [%] | Inhibition (%) obtained by 1 × 10^-4 moles/lit. concentrations of the test compounds (phosphodiesterase [2]) [%] | Inhibition (%) obtained by 1 × 10^-5 moles/lit. concentrations of the test compounds (phosphodiesterase [2]) [%] | Inhibition (%) obtained by 5 × 10^-5 moles/lit. concentrations of the test compounds (phosphodiesterase [2]) [%] | inhibition of the function of phosphodiesterase (phosphodiesterase [3]) | influencing psoriasis (psoriasis) | stimulation of the function of adenyl cyclase (adenyl cyclase) |
| --- | --- | --- | --- | --- | --- | --- | --- |
| CC[C@@]12C=C(C(=O)OC)n3c4c(c5ccccc53)CCN(CCC1)[C@H]42 [Apovincamine] | 21.9 | 54.8 | 20.3 | 33.5 |  |  |  |
| CC[C@@]12C=C(C(N)=O)n3c4c(c5ccccc53)CCN(CCC1)[C@H]42 [Apovincaminic acid amide] | 10.0 | 76.9 | 22.0 | 60.0 |  |  |  |
| CC[C@@]12C=C(C(=O)NN)n3c4c(c5ccccc53)CCN(CCC1)[C@H]42 [Apovincaminic acid-hydrazide, apovincaminic acid hydrazide] |  | 57.0 |  | 32.0 |  |  |  |
| CC[C@@]12C=C(C(=O)OC)n3c4c(c5ccc(OC)cc53)CCN(CCC1)[C@H]42 [Apovincine-KHSO4] | 36.6 | 71.8 | 49.0 | 59.4 |  |  |  |
| CC[C@@]12C=C(C(=O)OC)n3c4c(c5ccc(OC)cc53)CCN(CCC1)[C@H]42 [Apovincine-tartrate] | 38.1 | 81.6 | 48.7 | 76.9 |  |  |  |
| CCOC(=O)C1=C[C@]2(CC)CCCN3CCc4c(n1c1cc(OC)ccc41)[C@@H]32 [Apovincinic acid ethyl ester tartrate] |  | 58.6 | 23.7 | 44.0 |  |  |  |
| COc1ccc(Cc2nccc3cc(OC)c(OC)cc23)cc1OC [Papaverine, reference compound] |  | 56.4 |  | 36.4 | inhibit the function of phosphodiesterase | succeeded in influencing psoriasis |  |
| CC[C@@]12C=C(COC(C)=O)n3c4c(c5ccc(OC)cc53)CCN(CCC1)[C@H]42 [Tartrate salt of apovincinol-acetate] | 30.9 | 62.3 | 34.8 | 45.2 |  |  |  |
| Cn1c(=O)c2[nH]cnc2n(C)c1=O [Theophylline] |  |  |  |  | inhibit the function of phosphodiesterase | succeeded in influencing psoriasis |  |
| NC[C@H](O)c1ccc(O)c(O)c1 [norepinephrine] |  |  |  |  |  | succeeded in influencing psoriasis | stimulate the function of adenyl cyclase |
